Laboratory results taken from US10961200B2, “Small molecule inhibitors of lactate dehydrogenase and methods of use thereof” (THE UNITED STATES OF AMERICA, AS REPRESENTED BY THE …, priority 2014, dated 2021).

Assays:
Human LDHA = Human LDHA (Homo sapiens (Human), UniProt P00338); assay: human LDHA primary biochemical assay (resazurin/diaphorase coupled, fluorescence); settings: LDHA inhibitory activity, activity level based on IC50 (Table 7)
Text: Test compounds were placed in a Greiner Bio-One (Monroe, N.C.) 1536-well black solid bottom assay plate. 200 millimolar (mM) Tris HCl, pH 7.4, 100 micromolar […] EDTA and 0.01% TWEEN-20™, final concentration, was used as the assay buffer. The LDHA reagent was 2 nanomolar (nM) Human LDHA (Meridian Life Science, Inc., Memphis, Tenn.), final concentration, in assay buffer.

MiaPaCa2 cells = assay: cell-based HT lactate assay, colorimetric/fluorometric detection (inhibition of lactate production); settings: class symbols, 0 to 3 pluses

| IC50 (MiaPaCa2 cells; Homo sapiens, MIA PaCa-2) [nM] | Structure (SMILES) | IC50 (Human LDHA) [nM] | IC50 (MiaPaCa2 cells) [nM] |
| --- | --- | --- | --- |
|  | CC(c1ccccc1)c1cc(-c2nn(-c3nc(C(=O)O)cs3)c(CC3CC3)c2Cc2ccc(S(N)(=O)=O)c(F)c2)ccc1F (stereo not shown) [Compound 384] | < 100 | < 1000 |
|  | N[S+](=O)([O-])c1ccc(Cc2c(-c3ccc(F)c(C4CC4)c3)nn(-c3nc(C(=O)O)cs3)c2CC2CC2)cc1F [Compound 385] | < 100 | < 1000 |
|  | CC(C)(C)Cc1cc(-c2nn(-c3nc(C(=O)O)cs3)c(CC3CC3)c2Cc2ccc(S(N)(=O)=O)c(F)c2)ccc1F [Compound 386] | < 100 | < 1000 |
|  | N[S+](=O)([O-])c1ccc(Cc2c(-c3ccc(F)c(-c4cccc(CN5CCOCC5)c4)c3)nn(-c3nc(C(=O)O)cs3)c2CC2CC2)cc1F [Compound 387] | < 100 | 1000 to 10000 |
|  | N[S+](=O)([O-])c1ccc(Cc2c(-c3ccc(F)c(CCCCC(F)(F)F)c3)nn(-c3nc(C(=O)O)cs3)c2CC2CC2)cc1F [Compound 388] | < 100 | 1000 to 10000 |
|  | CNS(=N)(=O)c1ccc(Cc2c(-c3ccc(F)c(-c4cccc(F)c4)c3)nn(-c3nc(C(=O)O)cs3)c2CC2CC2)cc1F (stereo not shown) [Compound 389] | 100 to 1000 | 1000 to 10000 |
|  | CN1CCC(c2cc(-c3nn(-c4nc(C(=O)O)cs4)c(CC4CC4)c3Cc3ccc([S+](N)(=O)[O-])c(F)c3)ccc2F)CC1 [Compound 390] | < 100 | > 57000 |
|  | N[S+](=O)([O-])c1ccc(Cc2c(-c3ccc(F)c(C4CCOCC4)c3)nn(-c3nc(C(=O)O)cs3)c2CC2CC2)cc1F [Compound 391] | < 100 | < 1000 |
|  | CCOC(=O)c1csc(-n2nc(-c3cccc(-c4ccccc4)c3)c(Cc3ccc(S(N)(=O)=O)c(F)c3)c2CC2CC2)n1 [Compound 393] | > 57000 | > 57000 |
|  | NS(=O)(=O)c1ccc(Cc2c(-c3cccc(N4CCC(F)(F)CC4)c3)nn(-c3nc(C(=O)O)cs3)c2CC2CC2)cc1F [Compound 394] | < 100 | 10000 to 57000 |
|  | NS(=O)(=O)c1ccc(Cc2c(-c3cccc(N4CCC(F)(F)C4)c3)nn(-c3nc(C(=O)O)cs3)c2CC2CC2)cc1F [Compound 395] | 1000 to 57000 | 10000 to 57000 |
|  | NS(=O)(=O)c1ccc(Cc2c(-c3cccc(N4CCCC(C(F)(F)F)C4)c3)nn(-c3nc(C(=O)O)cs3)c2CC2CC2)cc1F (stereo not shown) [Compound 396] | < 100 | 1000 to 10000 |
|  | NS(=O)(=O)c1ccc(Cc2c(-c3cccc(N4CCCC(F)(F)C4)c3)nn(-c3nc(C(=O)O)cs3)c2CC2CC2)cc1F [Compound 397] | < 100 | 1000 to 10000 |
|  | NS(=O)(=O)c1ccc(Cc2c(-c3cccc(C(O)(C4CC4)C(F)(F)F)c3)nn(-c3nc(C(=O)O)cs3)c2CC2CC2)cc1F (stereo not shown) [Compound 398] | < 100 | 10000 to 57000 |
| > 57000 | N[S+](=O)([O-])c1ccc(Cc2c(CC3CC3)nn(-c3nc(C(=O)O)cs3)c2-c2ccc(C(O)(C3CC3)C(F)(F)F)cc2)cc1F (stereo not shown) [Compound 399] | 1000 to 57000 |  |
|  | NS(=O)(=O)c1ccc(Cc2c(-c3ccc(F)c(OCC4CC4(F)F)c3)nn(-c3nc(C(=O)O)cs3)c2CC2CC2)cc1F (stereo not shown) [Compound 400] | < 100 | < 1000 |
|  | CC(C)(C)C#Cc1cc(-c2nn(-c3nc(C(=O)O)cs3)c(CC3CC3)c2Cc2ccc(S(N)(=O)=O)c(F)c2)ccc1F [Compound 402] | < 100 | < 1000 |
|  | NS(=O)(=O)c1ccc(Cc2c(-c3ccc(F)c(C#Cc4cccs4)c3)nn(-c3nc(C(=O)O)cs3)c2CC2CC2)cc1F [Compound 403] | < 100 | < 1000 |
| < 1000 | COCC#Cc1cc(-c2nn(-c3nc(C(=O)O)cs3)c(CC3CC3)c2Cc2ccc([S+](N)(=O)[O-])c(F)c2)ccc1F [Compound 404] | < 100 |  |

| IC50 (MiaPaCa2 cells; Homo sapiens, MIA PaCa-2) [nM] | Structure (SMILES) | IC50 (Human LDHA) [nM] | IC50 (MiaPaCa2 cells) [nM] |
| --- | --- | --- | --- |
|  | Cn1cncc1C#Cc1cc(-c2nn(-c3nc(C(=O)O)cs3)c(CC3CC3)c2Cc2ccc(S(N)(=O)=O)c(F)c2)ccc1F [Compound 405] | < 100 | < 1000 |
|  | NS(=O)(=O)c1ccc(Cc2c(-c3ccc(F)c(C4CC4)c3)nn(-c3nc(C(=O)O)cs3)c2CC2CC2)cc1Cl [Compound 406] | < 100 | 1000 to 10000 |
|  | Cc1ccc(-c2cc(-c3nn(-c4nc(C(=O)O)cs4)c(CC4CC4)c3Cc3ccc(S(N)(=O)=O)c(Cl)c3)ccc2F)s1 [Compound 407] | < 100 | < 1000 |
|  | Cc1ccc(C#Cc2cc(-c3nn(-c4nc(C(=O)O)cs4)c(CC4CC4)c3Cc3ccc(S(N)(=O)=O)c(F)c3)ccc2F)s1 [Compound 408] | < 100 | < 1000 |
| 1000 to 10000 | N[S+](=O)([O-])c1ccc(Cc2c(-c3ccc(F)c(C#CCCO)c3)nn(-c3nc(C(=O)O)cs3)c2CC2CC2)cc1F [Compound 409] | < 100 |  |
|  | C#Cc1cc(-c2nn(-c3nc(C(=O)O)cs3)c(CC3CC3)c2Cc2ccc(S(N)(=O)=O)c(F)c2)ccc1F [Compound 410] | < 100 | < 1000 |
|  | N[S+](=O)([O-])c1ccc(Cc2c(-c3ccc(F)c(C#CCC4CCCC4)c3)nn(-c3nc(C(=O)O)cs3)c2CC2CC2)cc1F [Compound 411] | < 100 | < 1000 |
|  | NS(=O)(=O)c1ccc(Cc2c(-c3ccc(F)c(C#CC4(O)CCCC4)c3)nn(-c3nc(C(=O)O)cs3)c2CC2CC2)cc1F [Compound 412] | < 100 | 1000 to 10000 |
|  | NS(=O)(=O)c1ccc(Cc2c(-c3ccc(F)c(C#CC4(F)COC4)c3)nn(-c3nc(C(=O)O)cs3)c2CC2CC2)cc1F [Compound 414] | < 100 | 1000 to 10000 |
|  | NS(=O)(=O)c1ccc(Cc2c(-c3ccc(F)c(C#CC4(O)COC4)c3)nn(-c3nc(C(=O)O)cs3)c2CC2CC2)cc1F [Compound 415] | < 100 | 1000 to 10000 |
|  | CC1(C#Cc2cc(-c3nn(-c4nc(C(=O)O)cs4)c(CC4CC4)c3Cc3ccc(S(N)(=O)=O)c(F)c3)ccc2F)COC1 [Compound 416] | < 100 | 1000 to 10000 |
|  | N[S+](=O)([O-])c1ccc(Cc2c(-c3ccc(F)c(C#CCN4CCCC4)c3)nn(-c3nc(C(=O)O)cs3)c2CC2CC2)cc1F [Compound 417] | < 100 | 1000 to 10000 |
|  | NS(=O)(=O)c1ccc(Cc2c(-c3ccc(F)c(C#CC4(O)CCOC4)c3)nn(-c3nc(C(=O)O)cs3)c2CC2CC2)cc1F (stereo not shown) [Compound 418] | < 100 | 1000 to 10000 |
|  | NS(=O)(=O)c1ccc(Cc2c(-c3ccc(F)c(C#CC4(F)CCOC4)c3)nn(-c3nc(C(=O)O)cs3)c2CC2CC2)cc1F (stereo not shown) [Compound 419] | < 100 | < 1000 |
|  | CC#Cc1cc(-c2nn(-c3nc(C(=O)OCC)cs3)c(CC3CC3)c2Cc2ccc(S(N)(=O)=O)c(F)c2)ccc1F [Compound 420] | 1000 to 57000 | > 57000 |
|  | N[S+](=O)([O-])c1ccc(Cc2c(-c3ccc(F)c(C#CCC4CCCO4)c3)nn(-c3nc(C(=O)O)cs3)c2CC2CC2)cc1F (stereo not shown) [Compound 421] | < 100 | 1000 to 10000 |
|  | CC#Cc1cc(-c2nn(-c3nc(C(=O)O)cs3)c(CC3CC3)c2Cc2cccc([S+](N)(=O)[O-])c2)ccc1F [Compound 422] | < 100 | 10000 to 57000 |
|  | NS(=O)(=O)c1ccc(Cc2c(-c3ccc(F)c(C#CC4CCOC4)c3)nn(-c3nc(C(=O)O)cs3)c2CC2CC2)cc1F (stereo not shown) [Compound 423] | < 100 | < 1000 |
|  | CCOC(=O)c1csc(-n2nc(-c3cccc(C#CC4CCCC4)c3)c(Cc3ccc(S(N)(=O)=O)c(F)c3)c2CC2CC2)n1 [Compound 428] | > 57000 | > 57000 |
